# Measurements published in US20170112564A1, “METHODS AND MATERIALS FOR TREATING HYPERTENSION” (Mayo Foundation for Medical Education and Research, priority 2014, published 2017).
# Legend:
# [1] = system: young and older postmenopausal women; experiment: Ganglionic (autonomic) blockade with trimethaphan camsylate in young and older postmenopausal women: blood pressure and muscle sympathetic nerve activity; assay type: in vivo, humans; details: during trimethaphan
# Source text: FIG. 1 is a graph plotting muscle sympathetic nerve activity (MSNA; bursts/min) as measured using a microneurography technique for 24 humans. The dose indicates the amount of trimethaphan in mg/min it took to abolish the sympathetic nerve bursts. The MSNA bursts per minute is the amount of sympathetic bursts that occurred at baseline, prior to drug infusion.
# FIG. 2 is a graph plotting the same dose of trimethaphan in mg/min compared to the difference in mean arterial pressure (MAP) between baseline and at the final trimethaphan dose.
# The effect of ganglionic blockade on arterial blood pressure and how this relates to baseline muscle sympathetic nerve activity in 12 young (25±1 years) and 12 older postmenopausal (61±2 years) women were examined. The women were studied before and during autonomic blockade using trimethaphan camsylate. At baseline, muscle sympathetic nerve activity burst frequency and burst incidence were higher in the older women (33±3 versus 15±1 bursts/min; 57±5 versus 25±2 bursts/100 heartbeats, respectively; P<0.05). Muscle sympathetic nerve activity bursts were abolished by trimethaphan within minutes (e.g., between about 6 and about 35 minutes). […] Baseline muscle sympathetic nerve activity was associated with the decrease in mean arterial pressure during trimethaphan (r=−0.74; P<0.05). See, also, Barnes et al., Hypertension, 63:303-308 (2014).
# healthy humans = experiment: Brief escalating doses of trimethaphan camsylate with beat-to-beat arterial pressure to distinguish high and low sympathetic activity individuals; assay type: in vivo; details: 24 healthy humans, infusion 1-4 mg/minute for 5-10 minutes
# Protocol: Both normal human subjects and patients with diseases such as resistant hypertension can have very wide ranges of baseline sympathetic activity. The following was developed to distinguish those individuals with high levels of baseline sympathetic activity from individuals with lower levels of baseline sympathetic activity. Trimethaphan camsylate, a ganglionic blocking drug, was administered (e.g., by infusion) at 1-4 mg/minute for 5-10 minutes to 24 healthy humans, while non-invasive beat-to-beat measurements of arterial pressure were made. […] The relationship between the fall in blood pressure and baseline sympathetic activity in a group of about 20-30 healthy women ranging in age from their early 20's to their later 60's was determined (FIGS. 1 and 2). Similar data were obtained using healthy men. […] Those individuals with an elevated level of sympathetic activity responsive to a ganglionic blocking drug (e.g., a reduction in the number of bursts per minute that is greater than 10 burst per minute) can be optimal candidates for sympatholytic therapy.
# [2] = older postmenopausal women (61±2 years, n=12)
structure (smiles),measurement,setting,value
"O=C1N(Cc2ccccc2)C2C[S+]3CCCC3C2N1Cc1ccccc1 (stereo not drawn) [trimethaphan, trimethaphan camsylate]",Muscle sympathetic nerve activity bursts,[1]; 12 young and 12 older postmenopausal women,abolished
same,decrease in mean arterial pressure,[1]; [2],−29±2 mm Hg
same,decrease in total peripheral resistance,[1]; [2],−10±1 mm Hg/L per minute
same,decrease in mean arterial pressure,"[1]; young women (25±1 years, n=12)",−9±2 mm Hg
same,decrease in total peripheral resistance,"[1]; young women (25±1 years, n=12)",−5±1 mm Hg/L per minute
same,fall in blood pressure,healthy humans,directly related to baseline sympathetic activity
